Results on three compounds are retold here after patent US20120076775A1, “Combination of HGF Inhibitor and EGF Inhibitor to Treat Cancer” (priority 2008, published 2012).

Assay [1] addresses cMet receptor (Homo sapiens, UniProt P08581). As to conditions: literature; read-out: Kd, high affinity binding site for cMet receptor; cited from earlier work.
Assay [2] concerns the target heparin sulfate proteoglycans (HSPG). As to conditions: literature; read-out: Kd, low affinity binding site for HSPG; cited from earlier work.
For assay [3], the system named is GB-d1 gallbladder tumor xenografts. As to the kind of experiment: GB-d1 gallbladder tumor s.c. xenograft, tumor growth. The class given is in vivo. As to conditions: NIH III xid/Beige/nude mice, mAbs 100 μg (approx. 5 mg/kg) twice per week from day 13.
Experimental: Human tumor cells typically grown in complete DMEM medium are typically harvested in HBSS. Female immunodeficient, e.g., athymic nude mice (4-6 wks old) are injected s.c. with typically 5×10^6 cells in 0.2 ml of HBSS in the dorsal areas. When the tumor size reaches 50-100 mm^3, the mice are grouped randomly and appropriate amounts of the agents are administered. […] Tumor sizes are determined typically twice a week by measuring in two dimensions [length (a) and width (b)]. Tumor volume is calculated according to V=ab^2/2 and expressed as mean tumor volume±SEM. The number of mice in each treatment group is at least 3, but more often between 5 and 10, e.g., 7. One group of mice is treated with both agents; other groups may be treated with neither agent or with one agent but not the other agent. […] Statistical analysis may be performed using, e.g., Student's t test.
For example, such an experiment was performed with GB-d1 gallbladder tumor xenografts. Female NIH III xid/Beige/nude mice (4-6 wks old) were implanted with tumors by s.c. injection of 10^6 GB-d1 cells in the dorsal areas. When the tumor size reached ˜100 mm^3, the mice were grouped randomly into 4 groups of 5 mice each. […] The mAbs were administered twice per week at 100 μg (approx. 5 mg/kg body weight) from day 13. Tumor sizes were determined twice per week as described above.
For assay [4], the system named is U87EGFRvIII xenografts. In words: U87EGFRvIII s.c. xenograft, tumor growth. As to conditions: s.c. U87EGFRvIII in immunodeficient mice; mAbs i.p. 5 mg/kg days 8, 12, 15; erlotinib 150 mg/kg 6 times per week. It is filed as in vivo. The procedure:
Illustrative but not limiting examples of immunodeficient strains of mice that can be used are nude mice such as CD-1 nude, Nu/Nu, Balb/c nude, NIH-III (NIH-bg-nu-xid BR); scid mice such as Fox Chase SCID (C.B-17 SCID), Fox Chase outbred SCID and SCID Beige; mice deficient in RAG enzyme; as well as nude rats. Experiments are carried out as described previously (Kim et al., Nature 362:841, 1992, which is incorporated herein by reference). Human tumor cells typically grown in complete DMEM medium are typically harvested in HBSS. Female immunodeficient, e.g., athymic nude mice (4-6 wks old) are injected s.c. with typically 5×10^6 cells in 0.2 ml of HBSS in the dorsal areas. When the tumor size reaches 50-100 mm^3, the mice are grouped randomly and appropriate amounts of the agents are administered. […] Tumor sizes are determined typically twice a week by measuring in two dimensions [length (a) and width (b)]. Tumor volume is calculated according to V=ab^2/2 and expressed as mean tumor volume±SEM. […] The effect of the agents may measured by growth of the tumor with time, prolongation of the survival of the mice, or increase in percent of the mice surviving at a given time or indefinitely. […]

The subject of assay [5] is U87EGFRvIII intracranial xenografts. As to the kind of experiment: U87EGFRvIII intracranial xenograft, survival. The class given is in vivo, mice. As to conditions: treated day 5 to 21, 5 mg/kg mAb twice per week, 150 mg erlotinib 6 times per week. As to the method: In this experiment, mice were implanted intracranially with U87EGFRvIII cells as described (Kim et al, op. cit.) in order to more accurately simulate brain tumors. Four groups of mice were treated with control mAb 5G8 or anti-HGF mAb L27, either alone or in combination with erlotinib, from post-implantation day 5 to 21 (5 mg/kg mAb twice per week; 150 mg erlotinib 6 times per week).

pKd: −log10 of the molar value.

Chain of cMet receptor (P08581 25-1390): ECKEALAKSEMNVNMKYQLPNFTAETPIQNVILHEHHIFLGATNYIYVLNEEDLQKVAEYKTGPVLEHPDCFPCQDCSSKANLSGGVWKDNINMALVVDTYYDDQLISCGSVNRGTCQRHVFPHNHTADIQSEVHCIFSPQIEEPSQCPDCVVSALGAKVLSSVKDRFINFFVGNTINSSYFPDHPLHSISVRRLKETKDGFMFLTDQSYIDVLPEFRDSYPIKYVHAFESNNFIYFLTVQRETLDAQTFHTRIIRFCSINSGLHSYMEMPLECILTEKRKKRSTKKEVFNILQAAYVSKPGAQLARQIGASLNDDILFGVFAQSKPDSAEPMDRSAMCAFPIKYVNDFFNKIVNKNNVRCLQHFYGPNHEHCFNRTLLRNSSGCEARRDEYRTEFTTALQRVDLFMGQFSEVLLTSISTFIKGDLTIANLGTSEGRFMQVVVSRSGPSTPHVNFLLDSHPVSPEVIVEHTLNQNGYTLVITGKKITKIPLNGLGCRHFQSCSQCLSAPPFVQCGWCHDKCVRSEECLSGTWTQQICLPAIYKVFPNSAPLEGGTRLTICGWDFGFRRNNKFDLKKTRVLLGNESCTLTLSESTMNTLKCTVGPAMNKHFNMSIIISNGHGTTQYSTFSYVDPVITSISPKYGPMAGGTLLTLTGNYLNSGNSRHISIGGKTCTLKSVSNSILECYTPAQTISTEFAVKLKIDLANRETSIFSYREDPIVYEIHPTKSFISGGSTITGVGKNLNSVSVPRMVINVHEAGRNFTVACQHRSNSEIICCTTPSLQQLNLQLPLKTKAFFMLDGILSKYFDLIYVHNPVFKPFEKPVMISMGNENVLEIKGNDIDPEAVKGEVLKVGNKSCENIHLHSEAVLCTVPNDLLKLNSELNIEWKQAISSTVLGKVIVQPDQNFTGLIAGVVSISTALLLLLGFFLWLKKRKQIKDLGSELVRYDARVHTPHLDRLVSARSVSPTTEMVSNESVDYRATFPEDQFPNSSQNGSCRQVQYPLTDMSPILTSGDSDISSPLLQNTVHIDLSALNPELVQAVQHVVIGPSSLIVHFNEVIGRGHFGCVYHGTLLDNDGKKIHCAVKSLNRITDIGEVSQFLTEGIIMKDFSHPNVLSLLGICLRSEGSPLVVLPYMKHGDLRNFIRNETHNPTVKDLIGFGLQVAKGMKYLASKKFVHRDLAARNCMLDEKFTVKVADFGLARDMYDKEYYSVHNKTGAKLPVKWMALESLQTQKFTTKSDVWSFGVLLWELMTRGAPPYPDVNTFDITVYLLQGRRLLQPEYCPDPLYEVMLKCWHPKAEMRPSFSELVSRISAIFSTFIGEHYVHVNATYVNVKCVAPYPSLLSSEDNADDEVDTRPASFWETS

With “HGF: 102 kDa heterodimeric polypeptide growth factor, ligand of cMet”, the pKd in assay [1] was 9.70; in assay [2], 9.00.

Consider “HuL2G7: humanized L2G7 anti-HGF mAb; heavy and light chains SEQ ID NO:1 and 2”, for which the “inhibition of tumor growth (FIG. 1)” value in assay [3] was “partially inhibited tumor growth”.

Consider `C#Cc1cccc(Nc2ncnc3cc(OCCOC)c(OCCOC)cc23)c1` [erlotinib, N-(3-ethynylphenyl)-6,7-bis(2-methoxyethoxy)-4-quinazolinamine], for which, in assay [4], the “inhibition of growth of xenografts (FIG. 2)” value is recorded as “only modestly inhibited growth of the tumors”. In assay [5], the “prolongation of survival (FIG. 3)” value is “slightly but significantly prolonged survival”.
